Results reported in US8735387B2, “Oxazolopyrimidines as Edg-1 receptor agonists” (Sanofi, priority 2008, dated 2014).

molecular target: T1, human Edg-1 receptor (Homo sapiens, UniProt P21453); experiment: GTP-γ-S assay using human Edg-1 receptors (scintillation proximity assay, membrane preparation from CHO Flp-In cell line); type: biochemical; conditions: example compound at 10 μM; relative to 10 μM S1P; GTP-γ-S SPA, human Edg-1 membranes
T1 construct: expressed in transfected cells; membrane preparation
T1 sequence (P21453 whole entry): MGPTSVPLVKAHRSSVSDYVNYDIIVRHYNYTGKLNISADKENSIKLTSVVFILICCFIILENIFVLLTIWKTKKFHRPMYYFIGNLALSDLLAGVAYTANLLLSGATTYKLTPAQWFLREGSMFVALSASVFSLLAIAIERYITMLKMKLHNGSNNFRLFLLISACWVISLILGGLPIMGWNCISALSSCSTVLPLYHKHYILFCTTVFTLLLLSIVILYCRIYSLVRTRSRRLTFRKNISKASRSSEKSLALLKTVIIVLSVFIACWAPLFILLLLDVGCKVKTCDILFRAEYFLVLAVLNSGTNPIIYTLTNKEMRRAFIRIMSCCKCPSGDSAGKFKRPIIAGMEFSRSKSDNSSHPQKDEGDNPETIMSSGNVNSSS
From the text: Determination of the Pharmacological Activity A) GTP-γ-S Assay Using Human Edg-1 Receptors
In order to determine the Edg-1 receptor activation by the compounds of the invention, a GTP-γ-S (guanosine 5′-[γ-thio]triphosphate) assay for G-protein coupled receptor binding based on the scintillation proximity assay principle was used, employing a cell membrane preparation from a CHO Flp-In cell line which constitutively overexpresses the human Edg-1 receptor.
The Flp-In™ expression system (Invitrogen, cat. no. K6010-01) allows the generation of stable mammalian cell lines into which the gene of interest has been integrated through homologous recombination at a specific genomic location called Flp Recombination Target (FRT) site by means of a Flp recombinase encoded by the pOG44 expression plasmid. The integration of the pcDNA5/FRT expression construct into the Flp-In host cell line genome results in the transcription of the gene of interest. The stably transfected cells become hygromycin-resistant.
One day prior to transfection, 200 000 Flp-In-CHO cells were seeded in Ham F-12 medium (Invitrogen, cat. no. 31765) supplemented with 10% fetal calf serum (FCS; Perbio Science, cat. no. SH30068.03) in a 6-well plate and incubated at 37° C./5% CO2 overnight. Using the FuGENE® 6 transfection reagent (Roche, cat. no. 11988387001), cells were cotransfected with the Flp recombinase expression plasmid pOG44 and a modified plasmid additionally containing the edg-1 gene (accession no. NM_001400) termed as pcDNA5-FRT-TO_nFLAG_DEST-EDG-1 with a 9:1 ratio. To obtain the modified pcDNA5-FRT-TO_nFLAG_DEST plasmid, the Invitrogen plasmid pcDNA5/FRT/TO (Invitrogen, cat. no. V6520-20) was adapted to the Gateway® (Invitrogen) cloning system by inserting a Gateway cassette containing attR recombination sites flanking a ccdB gene and a chloramphenicol-resistance gene (Gateway conversion system, Invitrogen, cat. no. 11828-029). In addition a FLAG tag epitope was added before the 5′ att recombination site to allow recombinant expression of N-terminally FLAG-tagged proteins.
For the transfection of one well, 1.08 μg of pOG44 and 0.12 μg of pcDNA5-FRT-TO_nFLAG_DEST-EDG-1 were mixed to 100 μl of serum-free Ham F-12 medium containing 6 μl of FuGENE® 6 transfection reagent. After 20 min of incubation, the transfection reagent/DNA complex was distributed dropwise on the cells. The cells were incubated for 24 h at 37° C. Then the cells from 3 wells each were transferred to a T75 flask (Greiner Cellstar®, cat. no. 658175) containing Ham F-12 medium supplemented with 10% of FCS but without antibiotic and were incubated another 24 h. 48 h after transfection, the medium was replaced by selection medium (Ham F-12 supplemented with 10% of FCS and 300 μg/ml of hygromycin B (Invitrogen, cat. no. 10687-010)). The medium was exchanged every 2 to 3 days until a resistant population of cells had grown. […] After 2 weeks of selection, the cells were transferred into T175 flasks (Greiner Cellstar®, cat. no. 660175) and cultivated for batch production. Cells were harvested from the culture flasks by short treatment (2 to 5 min) with Accutase (PAA, cat. no. L11-007), resuspended in selection medium (see above) and centrifuged at 200×g for 5 min. Cells were resuspended in a mixture of 90% of FCS and 10% of dimethylsulfoxide and stored frozen in liquid nitrogen.
A membrane preparation was obtained by standard methods from the afore-described CHO Flp-In cell line constitutively overexpressing the human Edg-1 receptor. Briefly, the cryopreserved cells were taken in culture and grown until confluency in T175 cell culture flasks (Becton Dickinson, cat. no. 35 5001). […]

Compound | % Activation (Edg-1 receptor activation in percent of the activation by 10 μM S1P) [%]
CCCOc1nc(CN2CCCOCC2)nc2oc(-c3ccc(Cl)c(F)c3)nc12 [Example 91] | 96
CCCOc1nc(CN2CCCOCC2)nc2oc(-c3ccc(OC)c(F)c3)nc12 [Example 92] | 106
CCCOc1nc(CN2CCC(F)(F)CC2)nc2oc(-c3ccc(OC)c(F)c3)nc12 [Example 93] | 103
CCCOc1nc(CN2CCC(C(F)(F)F)CC2)nc2oc(-c3cccc(F)c3)nc12 [Example 94] | 82
CCCOc1nc(CN2CCCC2(F)F)nc2oc(-c3cccc(F)c3)nc12 [Example 95] | 105
CCCOc1nc(CN2CCC(F)(F)CC2)nc2oc(-c3ccco3)nc12 [Example 96] | 121
CCCOc1nc(CN2CCCOCC2)nc2oc(-c3ccco3)nc12 [Example 97] | 100
CCCOc1nc(CN2CCC(F)(F)CC2)nc2oc(-c3ccc(Br)o3)nc12 [Example 98] | 120
CCCOc1nc(CN2CCCOCC2)nc2oc(-c3ccc(Br)o3)nc12 [Example 99] | 117
CCCOc1nc(Cc2ccc(Cl)cc2)nc2oc(-c3ccc(C)cc3)nc12 [Example 100] | 88
CCCOc1nc(Cc2ccc(Cl)cc2)nc2oc(-c3cccc(C)c3)nc12 [Example 101] | 91
CCCOc1nc(Cc2ccc(Cl)cc2)nc2oc(-c3ccco3)nc12 [Example 102] | 65
CCCOc1nc(Cc2ccc(Cl)cc2)nc2oc(-c3cccs3)nc12 [Example 103] | 85
Fc1cccc(-c2nc3c(OCC4CC4)nc(Cc4ccc(Cl)cc4)nc3o2)c1 [Example 104] | 87
Cc1cccc(-c2nc3c(OCCC(C)C)nc(Cc4ccc(Cl)cc4)nc3o2)c1 [Example 106] | 22
Cc1cccc(-c2nc3c(OC4CCCC4)nc(Cc4ccc(Cl)cc4)nc3o2)c1 [Example 107] | 73
CCCCOc1nc(Cc2ccc(Cl)cc2)nc2oc(-c3cccc(C)c3)nc12 [Example 108] | 31
C#CCOc1nc(Cc2ccc(Cl)cc2)nc2oc(-c3cccc(C)c3)nc12 [Example 109] | 61
Clc1ccc(Cc2nc(OC3CCCC3)c3nc(-c4ccco4)oc3n2)cc1 [Example 110] | 61
CCCCOc1nc(Cc2ccc(Cl)cc2)nc2oc(-c3ccco3)nc12 [Example 111] | 57
Fc1cccc(-c2nc3c(OC4CCCC4)nc(Cc4ccc(Cl)cc4)nc3o2)c1 [Example 112] | 66
Cc1ccc(-c2nc3c(OC4CCCC4)nc(Cc4ccc(Cl)cc4)nc3o2)cc1 [Example 113] | 41
Clc1ccc(Cc2nc(OC3CCCC3)c3nc(-c4cccs4)oc3n2)cc1 [Example 114] | 83
CCCCOc1nc(Cc2ccc(Cl)cc2)nc2oc(-c3cccs3)nc12 [Example 115] | 33

Compound | % Activation (Edg-1 receptor activation in percent of the activation by 10 μM S1P) [%]
C=CCOc1nc(Cc2ccc(Cl)cc2)nc2oc(-c3cccc(C)c3)nc12 [Example 116] | 136
CCOc1nc(Cc2ccc(Cl)cc2)nc2oc(-c3cccc(C)c3)nc12 [Example 117] | 101
Cc1cccc(-c2nc3c(OCCF)nc(Cc4ccc(Cl)cc4)nc3o2)c1 [Example 118] | 103
C=C(C)COc1nc(Cc2ccc(Cl)cc2)nc2oc(-c3cccc(C)c3)nc12 [Example 119] | 80
Cc1cccc(-c2nc3c(OCCCF)nc(Cc4ccc(Cl)cc4)nc3o2)c1 [Example 120] | 107
C=CCCOc1nc(Cc2ccc(Cl)cc2)nc2oc(-c3cccc(C)c3)nc12 [Example 121] | 99
CCCOc1nc(Cc2ccc(Cl)cc2)nc2oc(-c3cccnc3)nc12 [Example 122] | 103
C#CCOc1nc(Cc2ccc(Cl)cc2)nc2oc(-c3cccnc3)nc12 [Example 123] | 47
C=C(C)COc1nc(Cc2ccc(Cl)cc2)nc2oc(-c3cccnc3)nc12 [Example 124] | 94
FCCCOc1nc(Cc2ccc(Cl)cc2)nc2oc(-c3cccnc3)nc12 [Example 125] | 112
FCCCOc1nc(Cc2ccc(Cl)cc2)nc2oc(-c3cccnc3)nc12 [Example 126] | 105
C=CCOc1nc(Cc2ccc(Cl)cc2)nc2oc(-c3cccnc3)nc12 [Example 127] | 73
CCOc1nc(Cc2ccc(Cl)cc2)nc2oc(-c3cccnc3)nc12 [Example 128] | 110
CCCOc1nc(Cc2ccc(Cl)cc2)nc2oc(-c3cccc(OC)c3)nc12 [Example 129] | 108
CCCOc1nc(Cc2ccc(Cl)cc2)nc2oc(-c3cccc(Cl)c3)nc12 [Example 130] | 78
CCCOc1nc(Cc2ccc(Cl)cc2)nc2oc(-c3cc(F)ccc3F)nc12 [Example 131] | 116
CCCOc1nc(Cc2ccc(Cl)cc2)nc2oc(-c3ccc(F)c(F)c3)nc12 [Example 132] | 71
CCCOc1nc(Cn2c(=O)n(C)c3ccccc32)nc2oc(-c3cccc(F)c3)nc12 [Example 133] | 127
CCCOc1nc(CN2CCC(=O)C(C(=O)OC)C2)nc2oc(-c3cccc(F)c3)nc12 (stereo not shown) [Example 134] | 78
CCCOc1nc(Cc2ccc(Cl)cc2)nc2oc(-c3cc(N)ccc3F)nc12 [Example 135] | 117
CCCOc1nc(Cc2ccc(C)cc2)nc2oc(-c3cccc(F)c3)nc12 [Example 136] | 73
CCCOc1nc(Cc2ccc(Cl)cc2)nc2oc(-c3cccc(N(C)C)c3)nc12 [Example 137] | 55
CCCOc1nc(Cc2ccc(Cl)cc2)nc2oc(-c3cc(C(F)(F)F)cc(C(F)(F)F)c3)nc12 [Example 138] | 52
Clc1ccc(Cc2nc(OCC3CC3)c3nc(-c4ccc(N5CCOCC5)nc4)oc3n2)cc1 [Example 139] | 87

same assay, conditions: example compound at 10 μM; relative to 10 μM S1P; GTP-γ-S SPA, human Edg-1 membranes; read-out: % Activation (Edg-1 receptor activation in percent of the activation by 10 μM S1P)

Compound | activation at 10 µM [%]
Cc1cccc(-c2nc3c(OCC4CC4)nc(Cc4ccc(Cl)cc4)nc3o2)c1 [Example 105, 5-(4-chloro-benzyl)-7-cyclopropylmethoxy-2-(3-methyl-phenyl)-oxazolo[5,4-d]pyrimidine] | 81
